The values that follow come from patent publication US8399681B2, “Substituted aminothiazolone indazoles as estrogen related receptor-alpha modulators” (Janssen Pharmaceutica NV, priority 2009, dated 2013).

The target in the test is T1, ERR1 (also known as ERR-α or ERR-1) (Homo sapiens, UniProt P11474).
T1 sequence (P11474 193-421 limits assumed): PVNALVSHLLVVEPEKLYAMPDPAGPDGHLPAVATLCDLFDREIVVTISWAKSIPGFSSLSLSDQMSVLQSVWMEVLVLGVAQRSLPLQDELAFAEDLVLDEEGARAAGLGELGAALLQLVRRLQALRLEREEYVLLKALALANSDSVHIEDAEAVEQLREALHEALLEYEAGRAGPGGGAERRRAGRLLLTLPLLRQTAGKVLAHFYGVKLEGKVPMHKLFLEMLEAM
Kind of test: TR-FRET assay (disruption of co-activator peptide binding). Format: biochemical. As to conditions: 6His-tagged ERR1 LBD, GST-hSRC2 co-activator polypeptide; average of 3 independent experiments. The procedure, abridged: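 His6-ERR1 LBD (6 nM) with GST-SRC-2 peptide (6 nM), anti-GST Eu cryptate (30 nM) and anti-His XL665 (7.5 nM) in Tris pH 8/KCl/DTT/BSA buffer, equilibrated 4-18 h at 25 °C. Ex 340, em 615/665 nm; hyperbolic dose-response fit, mean of 3 experiments.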
(TR-FRET usually uses a lanthanide donor and a delayed reading to cut background.)

As a reminder, the EC50 is the concentration needed to bring the measured effect to its halfway point. Low values mean an effect from little substance, high ones a need for much substance.

`O=C1N=C(N2CCN[C@H](CO)C2)S/C1=C\c1ccc2c(cnn2Cc2ccc(Cl)cc2C(F)(F)F)c1` [Example 206, 5-({1-[4-Chloro-2-(trifluoromethyl)benzyl]-1H-indazol-5-yl}methylidene)-2-[3-(S)-(hydroxymethyl)piperazin-1-yl]-1,3-thiazol-4(5H)-one] gave an EC50 of 28 nM.

In the case of `CC(C)(C)N1CCN(C2=NC(=O)/C(=C/c3ccc4c(cnn4Cc4ccc(C(F)(F)F)cc4C(F)(F)F)c3)S2)C[C@@H]1CO` [Example 207, 5-({1-[2,4-Bis(trifluoromethyl)benzyl]-1H-indazol-5-yl}methylidene)-2-[4-tert-butyl-3-(R)-(hydroxymethyl)piperazin-1-yl]-1,3-thiazol-4(5H)-one], a half-maximal effect (EC50) was put at 38 nM.

`COC[C@H]1CN(C2=NC(=O)/C(=C/c3ccc4c(cnn4Cc4ccc(Cl)cc4C(F)(F)F)c3)S2)CCN1` [Example 208, 5-({1-[4-Chloro-2-(trifluoromethyl)benzyl]-1H-indazol-5-yl}methylidene)-2-[3-(R)-(methoxymethyl)piperazin-1-yl]-1,3-thiazol-4(5H)-one] gave an EC50 of 6 nM.

As to `COC[C@@H]1CN(C2=NC(=O)/C(=C/c3ccc4c(cnn4Cc4ccc(Cl)cc4C(F)(F)F)c3)S2)CCN1` [Example 209, 5-({1-[4-Chloro-2-(trifluoromethyl)benzyl]-1H-indazol-5-yl}methylidene)-2-[3-(S)-(methoxymethyl)piperazin-1-yl]-1,3-thiazol-4(5H)-one], the EC50 is 6 nM.

Consider `COC[C@H]1CN(C2=NC(=O)/C(=C/c3ccc4c(cnn4Cc4ccc(C(F)(F)F)cc4C(F)(F)F)c3)S2)CCN1` [Example 210, 5-({1-[2,4-Bis(trifluoromethyl)benzyl]-1H-indazol-5-yl}methylidene)-2-[3-(R)-(methoxymethyl)piperazin-1-yl]-1,3-thiazol-4(5H)-one], for which it took 24.8 nM to reach a half-maximal effect (EC50).

Consider `COC[C@@H]1CN(C2=NC(=O)/C(=C/c3ccc4c(cnn4Cc4ccc(C(F)(F)F)cc4C(F)(F)F)c3)S2)CCN1` [Example 211, 5-({1-[2,4-Bis(trifluoromethyl)benzyl]-1H-indazol-5-yl}methylidene)-2-[3-(S)-(methoxymethyl)piperazin-1-yl]-1,3-thiazol-4(5H)-one], for which the 50% effective concentration (EC50) stood at 31 nM.

For the molecule `O=C1N=C(N2CCO[C@H](CO)C2)S/C1=C\c1ccc2c(cnn2Cc2ccc(Cl)cc2C(F)(F)F)c1` [Example 212, 5-({1-[4-Chloro-2-(trifluoromethyl)benzyl]-1H-indazol-5-yl}methylidene)-2-[2-(S)-(hydroxymethyl)morpholin-4-yl]-1,3-thiazol-4(5H)-one], the half-maximal effective concentration (EC50) amounted to 20 nM.

`O=C1N[C@@H]2C[C@H](CO1)N(C1=NC(=O)/C(=C/c3ccc4c(cnn4Cc4ccc(C(F)(F)F)cc4C(F)(F)F)c3)S1)C2` [Example 214, (1R,6R)-7-[5-({1-[2,4-Bis(trifluoromethyl)benzyl]-1H-indazol-5-yl}methylidene)-4-oxo-4,5-dihydro-1,3-thiazol-2-yl]-4-oxa-2,7-diazabicyclo[4.2.1]nonan-3-one] yielded an EC50 of 8 nM.

On to `O=C1N=C(N2CCN(C(=O)C3CC3)[C@@H](CO)C2)S/C1=C\c1ccc2c(cnn2Cc2ccc(C(F)(F)F)cc2C(F)(F)F)c1` [Example 215, 5-({1-[2,4-Bis(trifluoromethyl)benzyl]-1H-indazol-5-yl}methylidene)-2-[4-(cyclopropylcarbonyl)-3-(R)-(hydroxymethyl)piperazin-1-yl]-1,3-thiazol-4(5H)-one], for which the midpoint of the response, the EC50, lay at 48 nM.

`COC(=O)N1CCN(C2=NC(=O)/C(=C/c3ccc4c(cnn4Cc4ccc(C(F)(F)F)cc4C(F)(F)F)c3)S2)C[C@@H]1CO` [Example 216, Methyl 4-[5-({1-[2,4-bis(trifluoromethyl)benzyl]-1H-indazol-5-yl}methylidene)-4-oxo-4,5-dihydro-1,3-thiazol-2-yl]-2-(R)-(hydroxymethyl)piperazine-1-carboxylate] registered an EC50 of 15 nM.

On to `N#Cc1nn(Cc2ccc(C(F)(F)F)cc2C(F)(F)F)c2ccc(/C=C3\SC(N4CCN[C@@H](CO)C4)=NC3=O)cc12` [Example 217, 1-[2,4-Bis(trifluoromethyl)benzyl]-5-({2-[3-(R)-(hydroxymethyl)piperazin-1-yl]-4-oxo-1,3-thiazol-5(4H)-ylidene}methyl)-1H-indazole-3-carbonitrile], for which it took 27 nM to reach a half-maximal effect (EC50).

With `N#Cc1nn(Cc2ccc(C(F)(F)F)cc2C(F)(F)F)c2ccc(/C=C3\SC(N4CCN[C@H](CO)C4)=NC3=O)cc12` [Example 218, 1-[2,4-Bis(trifluoromethyl)benzyl]-5-({2-[3-(S)-(hydroxymethyl)piperazin-1-yl]-4-oxo-1,3-thiazol-5(4H)-ylidene}methyl)-1H-indazole-3-carbonitrile], the response was half-maximal at 36 nM (EC50).

In turn, `CN1CCN(C2=NC(=O)/C(=C/c3ccc4c(cnn4Cc4ccc(C(F)(F)F)cc4C(F)(F)F)c3)S2)CC1(C)C` [Example 219, 5-({1-[2,4-Bis(trifluoromethyl)benzyl]-1H-indazol-5-yl}methylidene)-2-(3,3,4-trimethylpiperazin-1-yl)-1,3-thiazol-4(5H)-one] had an EC50 of 23 nM.

Turning to `CC(C)(C)NC(=O)[C@@H]1CN(C2=NC(=O)/C(=C/c3ccc4c(cnn4Cc4ccc(C(F)(F)F)cc4C(F)(F)F)c3)S2)CCN1` [Example 220, 4-[5-({1-[2,4-Bis(trifluoromethyl)benzyl]-1H-indazol-5-yl}methylidene)-4-oxo-4,5-dihydro-1,3-thiazol-2-yl]-N-tert-butylpiperazine-2-(S)-carboxamide], the EC50 was found to be 21.4 nM.

The molecule `CN1CCN(C2=NC(=O)/C(=C/c3ccc4c(cnn4Cc4ccc(Cl)cc4C(F)(F)F)c3)S2)CC1(C)C` [Example 221, 5-({1-[4-Chloro-2-(trifluoromethyl)benzyl]-1H-indazol-5-yl}methylidene)-2-(3,3,4-trimethylpiperazin-1-yl)-1,3-thiazol-4(5H)-one] gave an EC50 of 7 nM.

`CN1CCN(C2=NC(=O)/C(=C/c3ccc4c(c3)c(C#N)nn4Cc3ccc(Cl)cc3C(F)(F)F)S2)CC1(C)C` [Example 222, 1-[4-Chloro-2-(trifluoromethyl)benzyl]-5-{[4-oxo-2-(3,3,4-trimethylpiperazin-1-yl)-1,3-thiazol-5(4H)-ylidene]methyl}-1H-indazole-3-carbonitrile] registered an EC50 of 20 nM.

In turn, `N#Cc1nn(Cc2ccc(Cl)cc2C(F)(F)F)c2ccc(/C=C3\SC(N4CCN(CC5CC5)CC4)=NC3=O)cc12` [Example 224, 1-[4-Chloro-2-(trifluoromethyl)benzyl]-5-({2-[4-(cyclopropylmethyl)piperazin-1-yl]-4-oxo-1,3-thiazol-5(4H)-ylidene}methyl)-1H-indazole-3-carbonitrile] showed an EC50 of 70 nM.

Take `O=C1N=C(N2C[C@H](O)[C@@H](N3CCOCC3)C2)S/C1=C\c1ccc2c(cnn2Cc2ccc(C(F)(F)F)cc2C(F)(F)F)c1` [Example 225, (5Z)-5-({1-[2,4-Bis(trifluoromethyl)benzyl]-1H-indazol-5-yl}methylidene)-2-[(3S,4S)-3-hydroxy-4-morpholin-4-ylpyrrolidin-1-yl]-1,3-thiazol-4(5H)-one]: the EC50 was 18 nM.

Turning to `CNC(=O)[C@H]1CN(C2=NC(=O)/C(=C/c3ccc4c(cnn4Cc4ccc(Cl)cc4C(F)(F)F)c3)S2)CCN1` [Example 226, (2R)-4-[5-({1-[4-Chloro-2-(trifluoromethyl)benzyl]-1H-indazol-5-yl}methylidene)-4-oxo-4,5-dihydro-1,3-thiazol-2-yl]-N-methylpiperazine-2-carboxamide], the EC50 worked out at 8 nM.

`CNC(=O)[C@H]1CN(C2=NC(=O)/C(=C/c3ccc4c(cnn4Cc4ccc(C(F)(F)F)cc4C(F)(F)F)c3)S2)CCN1` [Example 227, (2R)-4-[5-({1-[2,4-Bis(trifluoromethyl)benzyl]-1H-indazol-5-yl}methylidene)-4-oxo-4,5-dihydro-1,3-thiazol-2-yl]-N-methylpiperazine-2-carboxamide]: the EC50 was 15 nM.

For `CC(C)(C)NC(=O)[C@@H]1CN(C2=NC(=O)/C(=C/c3ccc4c(cnn4Cc4ccc(Cl)cc4C(F)(F)F)c3)S2)CCN1` [Example 228, (2S)—N-tert-Butyl-4-[5-({1-[4-chloro-2-(trifluoromethyl)benzyl]-1H-indazol-5-yl}methylidene)-4-oxo-4,5-dihydro-1,3-thiazol-2-yl]piperazine-2-carboxamide], the EC50 came to 26 nM.

The molecule `CC(C)(O)c1ccc(Cn2ncc3cc(/C=C4\SC(N5CCN[C@@H](CO)C5)=NC4=O)ccc32)c(Cl)c1` [Example 229, 5-({1-[2-Chloro-4-(1-hydroxy-1-methylethyl)benzyl]-1H-indazol-5-yl}methylidene)-2-[3-(R)-(hydroxymethyl)piperazin-1-yl]-1,3-thiazol-4(5H)-one] yielded an EC50 of 580 nM.

`C=C(C)c1ccc(Cn2ncc3cc(/C=C4\SC(N5CCN[C@@H](CO)C5)=NC4=O)ccc32)c(Cl)c1` [Example 230, 5-({1-[2-Chloro-4-(1-methylethenyl)benzyl]-1H-indazol-5-yl}methylidene)-2-[3-(R)-(hydroxymethyl)piperazin-1-yl]-1,3-thiazol-4(5H)-one] showed a 50% effective concentration (EC50) of 134 nM.

In turn, `CC(C)(O)c1ccc(Cn2ncc3cc(/C=C4\SC(N5CCO[C@@H](CO)C5)=NC4=O)ccc32)c(Cl)c1` [Example 231, 5-({1-[2-Chloro-4-(1-hydroxy-1-methylethyl)benzyl]-1H-indazol-5-yl}methylidene)-2-[2-(R)-(hydroxymethyl)morpholin-4-yl]-1,3-thiazol-4(5H)-one] registered an EC50 of 490 nM.
